Laboratory results reported in patent US20150105252A1, “SUBSTITUTED PYRAZOLES AS HERBICIDES” (E I DU PONT DE NEMOURS AND COMPANY, priority 2013, published 2015).

Tests used:
barnyardgrass [1] = assay: Test A preemergence; format: in vivo, Echinochloa crus-galli; settings: preemergence
Summary of the method: (§1)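 Injury readout: eye-scored versus untreated controls, 0 to 100. Exposure period: ~10 days, greenhouse. Application: soil-directed spray over sown seed (pre) or spray on seedlings 2–10 cm tall with one or two leaves (post), compound carried in non-phytotoxic solvent including surfactant.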

crabgrass, large [2] = assay: Test A preemergence; format: in vivo, Digitaria sanguinalis; settings: preemergence
Summary of the method: as §1

foxtail, giant [3] = assay: Test A preemergence; format: in vivo, Setaria faberii; settings: preemergence
Summary of the method: as §1

morningglory [4] = assay: Test A preemergence; format: in vivo, Ipomoea spp.; settings: preemergence
Summary of the method: as §1

pigweed [5] = assay: Test A preemergence; format: in vivo, Amaranthus retroflexus; settings: preemergence
Summary of the method: as §1

velvetleaf [6] = assay: Test A preemergence; format: in vivo, Abutilon theophrasti; settings: preemergence
Summary of the method: as §1

wheat [7] = assay: Test A preemergence; format: in vivo, Triticum aestivum; settings: preemergence
Summary of the method: as §1

corn [8] = assay: Test A preemergence; format: in vivo, Zea mays; settings: preemergence
Summary of the method: as §1

barnyardgrass [9] = assay: Test A postemergence; format: in vivo, Echinochloa crus-galli; settings: Postemergence
Summary of the method: as §1

crabgrass, large [10] = assay: Test A postemergence; format: in vivo, Digitaria sanguinalis
Summary of the method: as §1

foxtail, giant [11] = assay: Test A postemergence; format: in vivo, Setaria faberii
Summary of the method: as §1

morningglory [12] = assay: Test A postemergence; format: in vivo, Ipomoea spp.
Summary of the method: as §1

pigweed [13] = assay: Test A postemergence; format: in vivo, Amaranthus retroflexus
Summary of the method: as §1

velvetleaf [14] = assay: Test A postemergence; format: in vivo, Abutilon theophrasti
Summary of the method: as §1

wheat [15] = assay: Test A postemergence; format: in vivo, Triticum aestivum
Summary of the method: as §1

corn [16] = assay: Test A postemergence; format: in vivo, Zea mays
Summary of the method: as §1

rice = assay: Test B flood; format: in vivo, Oryza sativa; settings: 250 g ai/ha, visual rating on 0 to 100 scale (0 no effect, 100 complete control), 13 to 15 days
Summary of the method: (§2)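 Flooded-pot test: compound dosed into 3 cm of standing water above soil when plants had two leaves. Visual control ratings (0–100) versus untreated plants after 13–15 d.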

sedge, umbrella = assay: Test B flood; format: in vivo, Cyperus difformis; settings: 250 g ai/ha, visual rating on 0 to 100 scale (0 no effect, 100 complete control), 13 to 15 days
Summary of the method: as §2

ducksalad = assay: Test B flood; format: in vivo, Heteranthera limosa; settings: 250 g ai/ha, visual rating on 0 to 100 scale (0 no effect, 100 complete control), 13 to 15 days
Summary of the method: as §2

barnyardgrass [17] = assay: Test B flood; format: in vivo, Echinochloa crus-galli; settings: 250 g ai/ha, visual rating on 0 to 100 scale (0 no effect, 100 complete control), 13 to 15 days
Summary of the method: as §2

[18] = 125 g ai/ha, visual injury, 0 to 100 scale, approx. 10 days
[19] = 500 g ai/ha, visual injury after approx. 10 days, 0 to 100 scale (0 no effect, 100 complete control)
[20] = 125 g ai/ha, 0 to 100 scale, 0 no effect, 100 complete control
[21] = 500 g ai/ha, visual rating after approx. 10 days, 0 to 100 scale (0 no effect, 100 complete control)
[22] = Postemergence, 500 g ai/ha, visual rating after approx. 10 days, 0 to 100 scale (0 no effect, 100 complete control)
[23] = postemergence, 125 g ai/ha, about 10 days, visual rating on 0 to 100 scale (0 no effect, 100 complete control)

SMILES | Barnyardgrass plant response rating (barnyardgrass [1]; [18]) | Barnyardgrass plant response rating (barnyardgrass [1]; [19]) | Crabgrass, Large plant response rating (crabgrass, large [2]; [18]) | Crabgrass, Large plant response rating (crabgrass, large [2]; [19]) | Foxtail, Giant plant response rating (foxtail, giant [3]; [18]) | Foxtail, Giant plant response rating (foxtail, giant [3]; [19]) | Morningglory plant response rating (morningglory [4]; [18]) | Morningglory plant response rating (morningglory [4]; [19]) | Pigweed plant response rating (pigweed [5]; [18]) | Pigweed plant response rating (pigweed [5]; [19]) | Velvetleaf plant response rating (velvetleaf [6]; [18]) | Velvetleaf plant response rating (velvetleaf [6]; [19]) | Wheat plant response rating (wheat [7]; [18]) | Wheat plant response rating (wheat [7]; [19]) | Corn plant response rating (corn [8]; [18]) | Corn plant response rating (corn [8]; [19]) | Barnyardgrass plant response rating (barnyardgrass [9]; [20]) | Barnyardgrass plant response rating (barnyardgrass [9]; [21]) | Crabgrass, Large plant response rating (crabgrass, large [10]; [22]) | Crabgrass, Large plant response rating (crabgrass, large [10]; [23]) | also measured
CCc1cc(C(=O)NCC(F)(F)F)nn1Oc1cccc(C(F)(F)F)n1 [Compound 87] | 0 | 0 | 0 | 80 | 0 | 0 | 0 | 10 | 0 | 40 | 0 | 0 | 0 | 0 | 0 | 0 | 0 | 0 | 10 | 0 | Foxtail, Giant plant response rating (foxtail, giant [11]; [22]): 0; Foxtail, Giant plant response rating (foxtail, giant [11]; [23]): 0; Morningglory plant response rating (morningglory [12]; [22]): 20; Morningglory plant response rating (morningglory [12]; [23]): 10; Pigweed plant response rating (pigweed [13]; [22]): 10; Pigweed plant response rating (pigweed [13]; [23]): 0; Velvetleaf plant response rating (velvetleaf [14]; [22]): 10; Velvetleaf plant response rating (velvetleaf [14]; [23]): 0; Wheat plant response rating (wheat [15]; [22]): 0; Wheat plant response rating (wheat [15]; [23]): 0; Corn plant response rating (corn [16]; [22]): 0; Corn plant response rating (corn [16]; [23]): 0; Plant response rating, Rice (rice): 0; Plant response rating, Sedge, Umbrella (sedge, umbrella): 0; Plant response rating, Ducksalad (ducksalad): 0; Plant response rating, Barnyardgrass (barnyardgrass [17]): 0
CCCc1cc(C(=O)NCC(F)(F)F)nn1Oc1ccnc(C(F)(F)F)c1 [Compound 92] | 0 | 90 | 20 | 100 | 20 | 100 | 0 | 20 | 40 | 100 | 0 | 0 | 0 | 20 | 0 | 40 | 0 | 40 | 30 | 0 | Foxtail, Giant plant response rating (foxtail, giant [11]; [22]): 50; Foxtail, Giant plant response rating (foxtail, giant [11]; [23]): 0; Morningglory plant response rating (morningglory [12]; [22]): 40; Morningglory plant response rating (morningglory [12]; [23]): 0; Pigweed plant response rating (pigweed [13]; [22]): 40; Pigweed plant response rating (pigweed [13]; [23]): 0; Velvetleaf plant response rating (velvetleaf [14]; [22]): 20; Velvetleaf plant response rating (velvetleaf [14]; [23]): 0; Wheat plant response rating (wheat [15]; [22]): 20; Wheat plant response rating (wheat [15]; [23]): 0; Corn plant response rating (corn [16]; [22]): 40; Corn plant response rating (corn [16]; [23]): 0; Plant response rating, Rice (rice): 0; Plant response rating, Sedge, Umbrella (sedge, umbrella): 50; Plant response rating, Ducksalad (ducksalad): 50; Plant response rating, Barnyardgrass (barnyardgrass [17]): 0
CCCc1cc(C(=O)NC2CC2)nn1Oc1ccnc(C(F)(F)F)c1 [Compound 93] | 0 | 90 | 70 | 100 | 30 | 100 | 0 | 50 | 30 | 100 | 0 | 0 | 0 | 30 | 0 | 80 | 0 | 40 | 80 | 20 | Foxtail, Giant plant response rating (foxtail, giant [11]; [22]): 80; Foxtail, Giant plant response rating (foxtail, giant [11]; [23]): 20; Morningglory plant response rating (morningglory [12]; [22]): 60; Morningglory plant response rating (morningglory [12]; [23]): 0; Pigweed plant response rating (pigweed [13]; [22]): 60; Pigweed plant response rating (pigweed [13]; [23]): 20; Velvetleaf plant response rating (velvetleaf [14]; [22]): 20; Velvetleaf plant response rating (velvetleaf [14]; [23]): 0; Wheat plant response rating (wheat [15]; [22]): 40; Wheat plant response rating (wheat [15]; [23]): 20; Corn plant response rating (corn [16]; [22]): 90; Corn plant response rating (corn [16]; [23]): 0; Plant response rating, Rice (rice): 0; Plant response rating, Sedge, Umbrella (sedge, umbrella): 50; Plant response rating, Ducksalad (ducksalad): 50; Plant response rating, Barnyardgrass (barnyardgrass [17]): 0
